Test results published in the NIST ThermoML archive (doi:10.1021/je060139a).
± gives the expanded uncertainty stated by the source.

Tests used:
[1] = xn = mol fraction of the nth substance listed; settings: Wilhelmy plate method
[2] = refractive index (Na D-line) (dimensionless); xn = mol fraction of the nth substance listed; settings: 100.5 kPa, Liquid, Standard Abbe refractometry

COC(=O)c1ccccc1 [methyl benzoate] + CCO
Settings | refractive index, 288.15 K | refractive index, 298.18 K | refractive index, 308.15 K | refractive index, 318.15 K | surface tension liquid-gas, 288.15 K [mN/m] | surface tension liquid-gas, 298.18 K [mN/m] | surface tension liquid-gas, 308.15 K [mN/m] | surface tension liquid-gas, 318.15 K [mN/m]
[1], x1 = 0.05 | – | – | – | – | 23.8 ± 0.4 | 23 ± 0.4 | 22.1 ± 0.4 | 21.2 ± 0.4
[1], x1 = 0.1 | – | – | – | – | 24.63 ± 0.4 | 23.78 ± 0.4 | 22.87 ± 0.4 | 21.9 ± 0.4
[1], x1 = 0.15 | – | – | – | – | 25.4 ± 0.4 | 24.51 ± 0.4 | 23.57 ± 0.4 | 22.6 ± 0.4
[1], x1 = 0.2 | – | – | – | – | 26.18 ± 0.4 | 25.25 ± 0.4 | 24.28 ± 0.4 | 23.3 ± 0.4
[1], x1 = 0.25 | – | – | – | – | 26.92 ± 0.4 | 25.96 ± 0.4 | 24.94 ± 0.4 | 23.95 ± 0.4
[1], x1 = 0.3 | – | – | – | – | 27.67 ± 0.4 | 26.66 ± 0.4 | 25.59 ± 0.4 | 24.6 ± 0.4
[1], x1 = 0.35 | – | – | – | – | 28.37 ± 0.4 | 27.3 ± 0.4 | 26.2 ± 0.4 | 25.2 ± 0.4
[1], x1 = 0.4 | – | – | – | – | 29.04 ± 0.4 | 27.9 ± 0.4 | 26.8 ± 0.4 | 25.8 ± 0.4
[1], x1 = 0.45 | – | – | – | – | 29.69 ± 0.4 | 28.55 ± 0.4 | 27.4 ± 0.4 | 26.4 ± 0.4
[1], x1 = 0.5 | – | – | – | – | 30.33 ± 0.41 | 29.16 ± 0.41 | 28 ± 0.41 | 27 ± 0.4
[1], x1 = 0.55 | – | – | – | – | 30.97 ± 0.41 | 29.79 ± 0.41 | 28.6 ± 0.41 | 27.6 ± 0.41
[1], x1 = 0.6 | – | – | – | – | 31.62 ± 0.41 | 30.41 ± 0.41 | 29.2 ± 0.41 | 28.2 ± 0.41
[1], x1 = 0.65 | – | – | – | – | 32.29 ± 0.41 | 31.05 ± 0.41 | 29.8 ± 0.41 | 28.8 ± 0.41
[1], x1 = 0.7 | – | – | – | – | 33.01 ± 0.41 | 31.75 ± 0.41 | 30.5 ± 0.41 | 29.46 ± 0.41
[1], x1 = 0.75 | – | – | – | – | 33.78 ± 0.41 | 32.5 ± 0.41 | 31.2 ± 0.41 | 30.16 ± 0.41
[1], x1 = 0.8 | – | – | – | – | 34.6 ± 0.42 | 33.3 ± 0.42 | 32 ± 0.41 | 30.92 ± 0.41
[1], x1 = 0.85 | – | – | – | – | 35.6 ± 0.42 | 34.2 ± 0.42 | 32.8 ± 0.42 | 31.76 ± 0.42
[1], x1 = 0.9 | – | – | – | – | 36.6 ± 0.42 | 35.2 ± 0.42 | 33.8 ± 0.42 | 32.7 ± 0.42
[1], x1 = 0.95 | – | – | – | – | 37.6 ± 0.43 | 36.2 ± 0.42 | 34.8 ± 0.42 | 33.8 ± 0.42
[1], x1 = 1 | – | – | – | – | 38.6 ± 0.43 | 37.2 ± 0.43 | 35.8 ± 0.43 | 34.8 ± 0.42
[2], x1 = 0.05 | 1.38013 ± 0.00031 | 1.37591 ± 0.00031 | 1.37154 ± 0.00031 | 1.36738 ± 0.00031 | – | – | – | –
[2], x1 = 0.1 | 1.39497 ± 0.00032 | 1.39068 ± 0.00032 | 1.38617 ± 0.00032 | 1.38191 ± 0.00032 | – | – | – | –
[2], x1 = 0.15 | 1.40825 ± 0.00032 | 1.40383 ± 0.00032 | 1.39926 ± 0.00032 | 1.39488 ± 0.00032 | – | – | – | –
[2], x1 = 0.2 | 1.41993 ± 0.00032 | 1.41549 ± 0.00032 | 1.41088 ± 0.00032 | 1.40643 ± 0.00032 | – | – | – | –
[2], x1 = 0.25 | 1.43052 ± 0.00032 | 1.42606 ± 0.00032 | 1.42138 ± 0.00032 | 1.41686 ± 0.00032 | – | – | – | –
[2], x1 = 0.3 | 1.44018 ± 0.00032 | 1.4357 ± 0.00032 | 1.43104 ± 0.00032 | 1.42643 ± 0.00032 | – | – | – | –
[2], x1 = 0.35 | 1.44896 ± 0.00033 | 1.44448 ± 0.00033 | 1.4398 ± 0.00033 | 1.43518 ± 0.00033 | – | – | – | –
[2], x1 = 0.4 | 1.45703 ± 0.00033 | 1.45255 ± 0.00033 | 1.44784 ± 0.00033 | 1.44318 ± 0.00033 | – | – | – | –
[2], x1 = 0.45 | 1.4645 ± 0.00033 | 1.46 ± 0.00033 | 1.45528 ± 0.00033 | 1.45059 ± 0.00033 | – | – | – | –
[2], x1 = 0.5 | 1.47142 ± 0.00033 | 1.46691 ± 0.00033 | 1.4622 ± 0.00033 | 1.45746 ± 0.00033 | – | – | – | –
[2], x1 = 0.55 | 1.47785 ± 0.00033 | 1.47332 ± 0.00033 | 1.46859 ± 0.00033 | 1.46384 ± 0.00033 | – | – | – | –
[2], x1 = 0.6 | 1.48384 ± 0.00033 | 1.4793 ± 0.00033 | 1.47455 ± 0.00033 | 1.46979 ± 0.00033 | – | – | – | –
[2], x1 = 0.65 | 1.48938 ± 0.00033 | 1.48487 ± 0.00033 | 1.4801 ± 0.00033 | 1.47528 ± 0.00033 | – | – | – | –
[2], x1 = 0.7 | 1.49451 ± 0.00034 | 1.49 ± 0.00034 | 1.4852 ± 0.00034 | 1.48039 ± 0.00034 | – | – | – | –
[2], x1 = 0.75 | 1.49936 ± 0.00034 | 1.49482 ± 0.00034 | 1.49002 ± 0.00034 | 1.48515 ± 0.00034 | – | – | – | –
[2], x1 = 0.8 | 1.50381 ± 0.00034 | 1.49926 ± 0.00034 | 1.49445 ± 0.00034 | 1.48961 ± 0.00034 | – | – | – | –
[2], x1 = 0.85 | 1.50803 ± 0.00034 | 1.50347 ± 0.00034 | 1.49866 ± 0.00034 | 1.49378 ± 0.00034 | – | – | – | –
[2], x1 = 0.9 | 1.512 ± 0.00035 | 1.50743 ± 0.00035 | 1.5026 ± 0.00035 | 1.49773 ± 0.00035 | – | – | – | –
[2], x1 = 0.95 | 1.51569 ± 0.00035 | 1.51112 ± 0.00035 | 1.50631 ± 0.00035 | 1.50144 ± 0.00035 | – | – | – | –
[2], x1 = 1 | 1.51915 ± 0.00035 | 1.51467 ± 0.00035 | 1.50993 ± 0.00035 | 1.50514 ± 0.00035 | – | – | – | –
